In general, IC50 refers to the concentration that inhibits the measured activity by half. Low readings indicate inhibition by little substance, high ones a need for much substance.

One assay concerns the target T1, human PPARγ (Homo sapiens, UniProt P37231).
T1 construct: expressed in transfected cells
T1 sequence (P37231 1-477 isoform P37231-2): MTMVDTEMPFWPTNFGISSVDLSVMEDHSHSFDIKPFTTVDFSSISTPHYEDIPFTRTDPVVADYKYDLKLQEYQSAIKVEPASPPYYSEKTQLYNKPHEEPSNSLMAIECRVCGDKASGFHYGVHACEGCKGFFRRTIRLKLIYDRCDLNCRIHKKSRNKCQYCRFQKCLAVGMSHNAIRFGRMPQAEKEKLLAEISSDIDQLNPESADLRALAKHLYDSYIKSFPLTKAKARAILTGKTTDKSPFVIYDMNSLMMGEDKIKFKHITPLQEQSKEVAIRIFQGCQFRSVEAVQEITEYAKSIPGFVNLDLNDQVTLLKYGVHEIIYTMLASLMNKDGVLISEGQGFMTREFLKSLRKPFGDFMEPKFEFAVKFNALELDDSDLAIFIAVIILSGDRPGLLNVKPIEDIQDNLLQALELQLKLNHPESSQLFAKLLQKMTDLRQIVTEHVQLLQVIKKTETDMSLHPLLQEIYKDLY
T1 sequence (P19793 1-462 partner): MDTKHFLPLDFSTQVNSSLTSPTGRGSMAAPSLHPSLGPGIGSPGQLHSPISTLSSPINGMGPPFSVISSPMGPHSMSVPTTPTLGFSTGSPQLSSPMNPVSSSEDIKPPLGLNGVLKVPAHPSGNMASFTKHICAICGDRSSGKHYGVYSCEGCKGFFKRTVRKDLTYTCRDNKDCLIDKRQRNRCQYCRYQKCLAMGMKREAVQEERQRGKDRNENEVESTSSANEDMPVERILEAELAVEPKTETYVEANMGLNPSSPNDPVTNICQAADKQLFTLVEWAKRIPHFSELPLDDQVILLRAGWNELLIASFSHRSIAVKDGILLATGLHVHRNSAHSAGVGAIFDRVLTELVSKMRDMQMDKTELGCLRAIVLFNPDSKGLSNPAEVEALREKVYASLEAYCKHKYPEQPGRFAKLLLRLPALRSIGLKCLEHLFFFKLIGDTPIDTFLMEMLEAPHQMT
The assay can be described thus: PPARγ agonistic activity: luciferase reporter assay in PPARγ:RXRα:4ERPP/CHO-K1 cells. Type of assay: cell-based. The following applies: CHO-K1, test compound 10^−6 M; luciferase activity of control compound X (1 μM) = 100%, non-administration group = 0%. Summed up:
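Activity is expressed relative to untreated cells (0%) and 1 μM reference compound X (100%), from luciferase luminescence. Reporter line: PPARγ:RXRα:4ERPP/CHO-K1, exposed to compound for one day at 37 °C in F12 medium containing 0.1% fatty-acid-free BSA.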
On the technique in general: Reporter assays use an easily measured gene product as a stand-in for the process of interest.

A further assay concerns the target T2, human AT1 receptor (Homo sapiens, UniProt P30556).
T2 construct: expressed in transfected cells; membrane fraction
T2 sequence (P30556 1-359): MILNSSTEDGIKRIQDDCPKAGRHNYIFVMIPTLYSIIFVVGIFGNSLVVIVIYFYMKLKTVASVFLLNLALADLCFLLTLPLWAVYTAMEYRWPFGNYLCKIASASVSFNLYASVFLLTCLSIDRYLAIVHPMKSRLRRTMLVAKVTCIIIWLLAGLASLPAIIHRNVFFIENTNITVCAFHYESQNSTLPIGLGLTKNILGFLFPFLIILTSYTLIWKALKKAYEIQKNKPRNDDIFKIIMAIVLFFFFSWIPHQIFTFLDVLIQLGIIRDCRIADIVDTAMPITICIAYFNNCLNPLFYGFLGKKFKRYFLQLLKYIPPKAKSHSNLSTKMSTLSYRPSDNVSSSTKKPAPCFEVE
Briefly: AT1 receptor antagonistic activity: [125I]-angiotensin II binding assay on human AT1 receptor-expressing CHO-K1 cellular membrane fraction. The following applies: 22.5 pM [125I]-angiotensin II, 1 hr room temperature. An outline of the steps: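 Competition binding used radiolabelled angiotensin II on stably transfected CHO-K1 membrane fractions in Tris pH 7.4/MgCl2 buffer, optionally containing 0.3 mg/mL fatty acid-free BSA, 1 hr at room temperature. Filtration onto GF/C separated bound tracer, and nonspecific binding was measured with candesartan.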

Turning to `CCCc1c(Cc2ccc(-c3ccccc3-c3noc(=O)[nH]3)cc2)c(=O)n([C@H]2CC[C@H](OCC(C)(C)O)CC2)c2nc(C)nn12` [Example 296, 4-[trans-4-(2-hydroxy-2-methylpropoxy)cyclohexyl]-2-methyl-6-{[2′-(5-oxo-4,5-dihydro-1,2,4-oxadiazol-3-yl)biphenyl-4-yl]methyl}-7-propyl[1,2,4]triazolo[1,5-a]pyrimidin-5(4H)-one], the activation at 1 µM at human PPARγ was 29%. Also, the IC50 at human AT1 receptor amounted to 1.7 nM.

In turn, `CCCc1c(Cc2ccc(-c3ccccc3-c3noc(=O)[nH]3)cc2)c(=O)n([C@H]2CC[C@](O)(COC)CC2)c2ncnn12` [Example 297, 4-[cis-4-hydroxy-4-(methoxymethyl)cyclohexyl]-6-{[2′-(5-oxo-4,5-dihydro-1,2,4-oxadiazol-3-yl)biphenyl-4-yl]methyl}-7-propyl[1,2,4]triazolo[1,5-a]pyrimidin-5(4H)-one] gave an activation at 1 µM at human PPARγ of 53%. The IC50 on human AT1 receptor was 2.8 nM.

As to `CCCc1c(Cc2ccc(-c3ccccc3-c3noc(=O)[nH]3)cc2)c(=O)n([C@H]2CC[C@H](OC(C)C(C)O)CC2)c2ncnn12` (stereo partly drawn) [Example 299, 4-[trans-4-(2-hydroxy-1-methylpropoxy)cyclohexyl]-6-{[2′-(5-oxo-4,5-dihydro-1,2,4-oxadiazol-3-yl)biphenyl-4-yl]methyl}-7-propyl[1,2,4]triazolo[1,5-a]pyrimidin-5(4H)-one], the activation at 1 µM at human PPARγ stood at 19%. The compound further showed an IC50 at human AT1 receptor of 1.8 nM.

On to `CCCc1c(Cc2ccc(-c3ccccc3-c3noc(=O)[nH]3)cc2)c(=O)n([C@H]2CC[C@H](OC(C)C(C)(C)O)CC2)c2ncnn12` (stereo partly drawn) [Example 300, 4-[trans-4-(2-hydroxy-1,2-dimethylpropoxy)cyclohexyl]-6-{[2′-(5-oxo-4,5-dihydro-1,2,4-oxadiazol-3-yl)biphenyl-4-yl]methyl}-7-propyl[1,2,4]triazolo[1,5-a]pyrimidin-5(4H)-one], for which the activation at 1 µM at human PPARγ was determined as 16%. The IC50 on human AT1 receptor was 1.8 nM.

`CCCc1c(Cc2ccc(-c3ccccc3-c3noc(=O)[nH]3)cc2)c(=O)n([C@H]2CC[C@H](OCC(O)C(F)(F)F)CC2)c2ncnn12` (stereo partly drawn) [Example 325, 6-{[2′-(5-oxo-4,5-dihydro-1,2,4-oxadiazol-3-yl)biphenyl-4-yl]methyl}-7-propyl-4-[trans-4-(3,3,3-trifluoro-2-hydroxypropoxy)cyclohexyl][1,2,4]triazolo[1,5-a]pyrimidin-5(4H)-one]: the activation at 1 µM at human PPARγ was found to be 31%. For the same compound, on human AT1 receptor, the 50% inhibitory concentration (IC50) came to 2 nM.

Consider `CCCc1c(Cc2ccc(-c3ccccc3-c3noc(=O)[nH]3)cc2)c(=O)n([C@H]2CC[C@H](OCC(O)CC)CC2)c2ncnn12` (stereo partly drawn) [Example 326, 4-[trans-4-(2-hydroxybutoxy)cyclohexyl]-6-{[2′-(5-oxo-4,5-dihydro-1,2,4-oxadiazol-3-yl)biphenyl-4-yl]methyl}-7-propyl[1,2,4]triazolo[1,5-a]pyrimidin-5(4H)-one], for which the activation at 1 µM at human PPARγ came to 29%. At human AT1 receptor, this compound gave a concentration for half-maximal inhibition (IC50) of 1.8 nM.

As for `C=CC(O)CO[C@H]1CC[C@H](n2c(=O)c(Cc3ccc(-c4ccccc4-c4noc(=O)[nH]4)cc3)c(CCC)n3ncnc32)CC1` (stereo partly drawn) [Example 331, 4-{trans-4-[(2-hydroxybut-3-en-1-yl)oxy]cyclohexyl}-6-{[2′-(5-oxo-4,5-dihydro-1,2,4-oxadiazol-3-yl)biphenyl-4-yl]methyl}-7-propyl[1,2,4]triazolo[1,5-a]pyrimidin-5(4H)-one], the activation at 1 µM at human PPARγ turned out to be 33%. This compound also came in with an IC50 on human AT1 receptor of 2 nM.

At human PPARγ, `CCCc1c(Cc2ccc(-c3ccccc3-c3noc(=O)[nH]3)cc2)c(=O)n([C@H]2CC[C@H](OCC(C)(O)C(F)(F)F)CC2)c2ncnn12` (stereo partly drawn) [Example 335, 6-{[2′-(5-oxo-4,5-dihydro-1,2,4-oxadiazol-3-yl)biphenyl-4-yl]methyl}-7-propyl-4-[trans-4-(3,3,3-trifluoro-2-hydroxy-2-methylpropoxy)cyclohexyl][1,2,4]triazolo[1,5-a]pyrimidin-5(4H)-one] registered an activation at 1 µM of 19%. Moreover, the IC50 on human AT1 receptor turned out to be 1.9 nM.

`CCCc1c(Cc2ccc(-c3ccccc3-c3noc(=O)[nH]3)cc2)c(=O)n([C@H]2CC[C@H](OCC(C)(O)CF)CC2)c2ncnn12` (stereo partly drawn) [Example 337, 4-[trans-4-(3-fluoro-2-hydroxy-2-methylpropoxy)cyclohexyl]-6-{[2′-(5-oxo-4,5-dihydro-1,2,4-oxadiazol-3-yl)biphenyl-4-yl]methyl}-7-propyl[1,2,4]triazolo[1,5-a]pyrimidin-5(4H)-one] displayed an activation at 1 µM at human PPARγ of 24%. The compound further registered an IC50 on human AT1 receptor of 1.9 nM.

With `CCCc1c(Cc2ccc(-c3ccccc3-c3noc(=O)[nH]3)cc2)c(=O)n([C@H]2CC[C@H](OCC3(O)CCC3)CC2)c2ncnn12` [Example 338, 4-{trans-4-[(1-hydroxycyclobutyl)methoxy]cyclohexyl}-6-{[2′-(5-oxo-4,5-dihydro-1,2,4-oxadiazol-3-yl)biphenyl-4-yl]methyl}-7-propyl[1,2,4]triazolo[1,5-a]pyrimidin-5(4H)-one], the activation at 1 µM at human PPARγ is 36%. Besides, at human AT1 receptor, the IC50 stood at 1.6 nM.

On to `CCCc1c(Cc2ccc(-c3ccccc3-c3noc(=O)[nH]3)cc2)c(=O)n([C@H]2CC[C@H](OCC(O)(CF)CF)CC2)c2ncnn12` [Example 339, 4-{trans-4-[3-fluoro-2-(fluoromethyl)-2-hydroxypropoxy]cyclohexyl}-6-{[2′-(5-oxo-4,5-dihydro-1,2,4-oxadiazol-3-yl)biphenyl-4-yl]methyl}-7-propyl[1,2,4]triazolo[1,5-a]pyrimidin-5(4H)-one], for which, at human PPARγ, the activation at 1 µM came out at 27%. At human AT1 receptor, this compound gave a half-maximal inhibitory concentration (IC50) of 1.4 nM.

Consider `CCCc1c(Cc2ccc(-c3ccccc3-c3noc(=O)[nH]3)cc2)c(=O)n([C@H]2CC[C@H](OCC(C)(O)CC)CC2)c2ncnn12` (stereo partly drawn) [Example 345, 4-[trans-4-(2-hydroxy-2-methylbutoxy)cyclohexyl]-6-{[2′-(5-oxo-4,5-dihydro-1,2,4-oxadiazol-3-yl)biphenyl-4-yl]methyl}-7-propyl[1,2,4]triazolo[1,5-a]pyrimidin-5(4H)-one], for which the activation at 1 µM at human PPARγ amounted to 18%. Further, the half-maximal inhibitory concentration (IC50) on human AT1 receptor is 2.1 nM.

As for `CCCc1c(Cc2ccc(-c3ccccc3-c3noc(=O)[nH]3)cc2)c(=O)n([C@H]2CC[C@H](OC(CC)C(C)(C)O)CC2)c2ncnn12` (stereo partly drawn) [Example 348, 4-[trans-4-(1-ethyl-2-hydroxy-2-methylpropoxy)cyclohexyl]-6-{[2′-(5-oxo-4,5-dihydro-1,2,4-oxadiazol-3-yl)biphenyl-4-yl]methyl}-7-propyl[1,2,4]triazolo[1,5-a]pyrimidin-5(4H)-one], the activation at 1 µM on human PPARγ came out at 19%. The IC50 at human AT1 receptor turned out to be 1.9 nM.

`CCCc1c(Cc2ccc(-c3ccccc3-c3noc(=O)[nH]3)cc2)c(=O)n([C@H]2CC[C@H](OCC(O)C(F)F)CC2)c2ncnn12` (stereo partly drawn) [Example 352, 4-[trans-4-(3,3-difluoro-2-hydroxypropoxy)cyclohexyl]-6-{[2′-(5-oxo-4,5-dihydro-1,2,4-oxadiazol-3-yl)biphenyl-4-yl]methyl}-7-propyl[1,2,4]triazolo[1,5-a]pyrimidin-5(4H)-one] gave an activation at 1 µM at human PPARγ of 20%. For the same compound, the IC50 at human AT1 receptor stood at 1.4 nM.

As for `CCCc1c(Cc2ccc(-c3ccccc3-c3noc(=O)[nH]3)cc2)c(=O)n([C@H]2CC[C@H](OCC(C)(O)CF)CC2)c2nc(C)nn12` (stereo partly drawn) [Example 354, 4-[trans-4-(3-fluoro-2-hydroxy-2-methylpropoxy)cyclohexyl]-2-methyl-6-{[2′-(5-oxo-4,5-dihydro-1,2,4-oxadiazol-3-yl)biphenyl-4-yl]methyl}-7-propyl[1,2,4]triazolo[1,5-a]pyrimidin-5(4H)-one], the activation at 1 µM at human PPARγ stood at 18%. Also, the IC50 at human AT1 receptor came to 1.2 nM.

For the origin of these results see patent US8283353B2, “Fused ring compound and use thereof” (Takeda Pharmaceutical Company Limited, priority 2009, dated 2012).
